How the values were obtained:
Type in all cases: functional
[1] = Growth inhibition of human NCI-ADR-RES cells assessed as cell growth at 3X10'-8 M after 48 hrs by sulforhodamine B assay; conditions: read-out: Activity
[2] = system: SNB-19; assay: Growth inhibition of human SNB19 cells assessed as cell growth at 3X10'-9 M after 48 hrs by sulforhodamine B assay; conditions: SNB-19, 48 h, read-out: Activity
[3] = system: MOLT-4; assay: Growth inhibition of human MOLT4 cells assessed as cell growth at 3X10'-5 M after 48 hrs by sulforhodamine B assay; conditions: MOLT-4, 48 h, read-out: Activity
[4] = system: DU-145; assay: Growth inhibition of human DU145 cells assessed as cell growth at 3X10'-9 M after 48 hrs by sulforhodamine B assay; conditions: DU-145, 48 h, read-out: Activity
[5] = system: DU-145; assay: Growth inhibition of human DU145 cells assessed as cell growth at 3X10'-7 M after 48 hrs by sulforhodamine B assay; conditions: DU-145, 48 h, read-out: Activity
[6] = system: OVCAR-5; assay: Growth inhibition of human OVCAR5 cells assessed as cell growth at 3X10'-8 M after 48 hrs by sulforhodamine B assay; conditions: OVCAR-5, 48 h, read-out: Activity
[7] = Growth inhibition of human Hs 578T cells assessed as cell growth at 3X10'-8 M after 48 hrs by sulforhodamine B assay; conditions: read-out: Activity
[8] = system: 786-0; assay: Growth inhibition of human 786-0 cells assessed as cell growth at 3X10'-8 M after 48 hrs by sulforhodamine B assay; conditions: 786-0, 48 h, read-out: Activity
[9] = system: T47D; assay: Growth inhibition of human T47D cells assessed as cell growth at 3X10'-9 M after 48 hrs by sulforhodamine B assay; conditions: read-out: Activity
[10] = system: MDA-MB-435; assay: Growth inhibition of human MDA-MB-435 cells assessed as cell growth at 3X10'-8 M after 48 hrs by sulforhodamine B assay; conditions: MDA-MB-435, 48 h, read-out: Activity
[11] = system: MDA-MB-435; assay: Growth inhibition of human MDA-MB-435 cells assessed as cell growth at 3X10'-9 M after 48 hrs by sulforhodamine B assay; conditions: MDA-MB-435, 48 h, read-out: Activity
[12] = system: SK-MEL-28; assay: Growth inhibition of human SK-MEL-28 cells assessed as cell growth at 3X10'-8 M after 48 hrs by sulforhodamine B assay; conditions: SK-MEL-28, 48 h, read-out: Activity
[13] = system: SN12C; assay: Growth inhibition of human SN12C cells assessed as cell growth at 3X10'-8 M after 48 hrs by sulforhodamine B assay; conditions: read-out: Activity
[14] = system: MDA-MB-231; assay: Growth inhibition of human MDA-MB-231 cells assessed as cell growth at 3X10'-8 M after 48 hrs by sulforhodamine B assay; conditions: MDA-MB-231, 48 h, read-out: Activity
[15] = system: M14; assay: Growth inhibition of human M14 cells assessed as cell growth at 3X10'-6 M after 48 hrs by sulforhodamine B assay; conditions: M14, 48 h, read-out: Activity
[16] = system: MDA-MB-435; assay: Growth inhibition of human MDA-MB-435 cells assessed as cell growth at 3X10'-7 M after 48 hrs by sulforhodamine B assay; conditions: MDA-MB-435, 48 h, read-out: Activity
[17] = system: CCRF-CEM; assay: Growth inhibition of human CCRF-CEM cells assessed as cell growth at 3X10'-5 M after 48 hrs by sulforhodamine B assay; conditions: read-out: Activity
[18] = system: SF-268; assay: Growth inhibition of human SF268 cells assessed as cell growth at 3X10'-8 M after 48 hrs by sulforhodamine B assay; conditions: SF-268, 48 h, read-out: Activity
[19] = system: SK-OV-3; assay: Growth inhibition of human SKOV3 cells assessed as cell growth at 3X10'-6 M after 48 hrs by sulforhodamine B assay; conditions: SK-OV-3, 48 h, read-out: Activity
[20] = system: BT-549; assay: Growth inhibition of human BT549 cells assessed as cell growth at 3X10'-6 M after 48 hrs by sulforhodamine B assay; conditions: BT-549, 48 h, read-out: Activity
[21] = system: U-251; assay: Growth inhibition of human U251 cells assessed as cell growth at 3X10'-8 M after 48 hrs by sulforhodamine B assay; conditions: U-251, 48 h, read-out: Activity
[22] = system: SK-OV-3; assay: Growth inhibition of human SKOV3 cells assessed as cell growth at 3X10'-9 M after 48 hrs by sulforhodamine B assay; conditions: SK-OV-3, 48 h, read-out: Activity
[23] = Growth inhibition of human Hs 578T cells assessed as cell growth at 3X10'-9 M after 48 hrs by sulforhodamine B assay; conditions: read-out: Activity
[24] = system: HCT-116; assay: Growth inhibition of human HCT116 cells assessed as cell growth at 3X10'-6 M after 48 hrs by sulforhodamine B assay; conditions: HCT-116, 48 h, read-out: Activity
[25] = Growth inhibition of human NCI-ADR-RES cells assessed as cell growth at 3X10'-9 M after 48 hrs by sulforhodamine B assay; conditions: read-out: Activity
[26] = system: HT-29; assay: Growth inhibition of human HT-29 cells assessed as cell growth at 3X10'-6 M after 48 hrs by sulforhodamine B assay; conditions: HT-29, 48 h, read-out: Activity
[27] = system: NCI-H460; assay: Growth inhibition of human NCI-H460 cells assessed as cell growth at 3X10'-9 M after 48 hrs by sulforhodamine B assay; conditions: NCI-H460, 48 h, read-out: Activity
[28] = system: HCT-15; assay: Growth inhibition of human HCT15 cells assessed as cell growth at 3X10'-9 M after 48 hrs by sulforhodamine B assay; conditions: HCT-15, 48 h, read-out: Activity
[29] = system: HOP-62; assay: Growth inhibition of human HOP62 cells assessed as cell growth at 3X10'-6 M after 48 hrs by sulforhodamine B assay; conditions: HOP-62, 48 h, read-out: Activity
[30] = system: UO-31; assay: Growth inhibition of human UO31 cells assessed as cell growth at 3X10'-8 M after 48 hrs by sulforhodamine B assay; conditions: UO-31, 48 h, read-out: Activity
[31] = system: RPMI-8226; assay: Growth inhibition of human RPMI8226 cells assessed as cell growth at 3X10'-6 M after 48 hrs by sulforhodamine B assay; conditions: RPMI-8226, 48 h, read-out: Activity
[32] = system: HOP-92; assay: Growth inhibition of human HOP92 cells assessed as cell growth at 3X10'-9 M after 48 hrs by sulforhodamine B assay; conditions: HOP-92, 48 h, read-out: Activity
[33] = system: NCI-H460; assay: Growth inhibition of human NCI-H460 cells assessed as cell growth at 3X10'-8 M after 48 hrs by sulforhodamine B assay; conditions: NCI-H460, 48 h, read-out: Activity
[34] = system: OVCAR-3; assay: Growth inhibition of human OVCAR3 cells assessed as cell growth at 3X10'-8 M after 48 hrs by sulforhodamine B assay; conditions: OVCAR-3, 48 h, read-out: Activity
[35] = system: SNB-19; assay: Growth inhibition of human SNB19 cells assessed as cell growth at 3X10'-7 M after 48 hrs by sulforhodamine B assay; conditions: SNB-19, 48 h, read-out: Activity
[36] = system: SF-295; assay: Growth inhibition of human SF295 cells assessed as cell growth at 3X10'-8 M after 48 hrs by sulforhodamine B assay; conditions: SF-295, 48 h, read-out: Activity
[37] = system: SK-OV-3; assay: Growth inhibition of human SKOV3 cells assessed as cell growth at 3X10'-5 M after 48 hrs by sulforhodamine B assay; conditions: SK-OV-3, 48 h, read-out: Activity

Structure (SMILES) | growth at 0.03 µM [1] | growth at 0.003 µM [2] | growth at 30 µM [3] | growth at 0.003 µM [4] | growth at 0.3 µM [5] | growth at 0.03 µM [6] | growth at 0.03 µM [7] | growth at 0.03 µM [8] | growth at 0.003 µM [9] | growth at 0.03 µM [10] | growth at 0.003 µM [11] | growth at 0.03 µM [12] | growth at 0.03 µM [13] | growth at 0.03 µM [14] | growth at 3 µM [15] | growth at 0.3 µM [16] | growth at 30 µM [17] | growth at 0.03 µM [18] | growth at 3 µM [19] | growth at 3 µM [20] | further results
O=C(Nc1cccc(-n2cc(-c3ccncc3)c(-c3ccc(Cl)c(O)c3)n2)c1)Nc1ccc(Cl)c(Cl)c1 | 97% | 98% | 6% | 104% | 105% | 96% | 71% | 96% | 97% | 96% | 95% | 102% | 96% | 100% | 14% | 91% | 5% | 92% | 13% | 28% | growth at 0.03 µM [21]: 100%; growth at 0.003 µM [22]: 96%; growth at 0.003 µM [23]: 89%; growth at 3 µM [24]: 13%; growth at 0.003 µM [25]: 100%; growth at 3 µM [26]: 60%; growth at 0.003 µM [27]: 108%; growth at 0.003 µM [28]: 102%; growth at 3 µM [29]: 35%; growth at 0.03 µM [30]: 92%; growth at 3 µM [31]: 10%; growth at 0.003 µM [32]: 98%; growth at 0.03 µM [33]: 105%; growth at 0.03 µM [34]: 100%; growth at 0.3 µM [35]: 101%
O=C(Nc1cccc(-n2cc(-c3ccncc3)c(-c3ccc(Cl)c(O)c3)n2)c1)Nc1cccc(C(F)(F)F)c1 | 97% | 94% | 8% | 101% | 97% | 100% | 91% | 96% | 92% | 100% | 102% | 100% | 98% | 101% | 21% | 96% | 7% | 94% | 58% | 79% | growth at 0.03 µM [36]: 99%; growth at 0.03 µM [21]: 100%; growth at 0.003 µM [22]: 98%; growth at 30 µM [37]: 15%; growth at 0.003 µM [23]: 93%; growth at 3 µM [24]: 23%; growth at 0.003 µM [25]: 99%; growth at 3 µM [26]: 96%; growth at 0.003 µM [27]: 99%; growth at 0.003 µM [28]: 95%; growth at 3 µM [29]: 70%; growth at 0.03 µM [30]: 85%; growth at 3 µM [31]: 25%; growth at 0.003 µM [32]: 85%; growth at 0.03 µM [33]: 101%; growth at 0.03 µM [34]: 93%; growth at 0.3 µM [35]: 96%
COc1cc(-c2nn(-c3cccc(NC(=O)Nc4ccc(Cl)c(C(F)(F)F)c4)c3)cc2-c2ccncc2)ccc1Cl | 108% | 95% | -15% | 102% | 103% | 89% | 89% | 102% | 101% | 92% | 98% | 95% | 94% | 92% | 4% | 91% | 2% | 103% | 21% | 40% | growth at 0.03 µM [36]: 90%; growth at 0.03 µM [21]: 94%; growth at 0.003 µM [22]: 105%; growth at 30 µM [37]: -14%; growth at 0.003 µM [23]: 90%; growth at 3 µM [24]: 11%; growth at 0.003 µM [25]: 104%; growth at 3 µM [26]: 10%; growth at 0.003 µM [27]: 103%; growth at 0.003 µM [28]: 94%; growth at 3 µM [29]: 22%; growth at 0.03 µM [30]: 89%; growth at 0.003 µM [32]: 68%; growth at 0.03 µM [33]: 102%; growth at 0.03 µM [34]: 109%; growth at 0.3 µM [35]: 94%

Reference: ChEMBL document CHEMBL2440076, “New triarylpyrazoles as broad-spectrum anticancer agents: design, synthesis, and biological evaluation” (Eur J Med Chem, 2013)
